Assay results from patent US4681890A, “3,4-dihydrobenzopyran compounds and pharmaceutical composition containing the same” (Kuraray Co., Ltd., priority 1984, dated 1987).

Experiments:
[1] = test system: Total cholesterol in serum (hypercholesterolemic mice); experiment: Blood cholesterol lowering activity (total serum cholesterol in mice given a lipid emulsion); type: in vivo, dd-Male mice; conditions: for Serum cholesterol value: p.o., 17 hours after second administration
Description: dd-Male mice weighing about 25 g (one group: 10 mice) were allowed to fast for 12 hours, and thereto was orally administered a lipid emulsion (olive oil 32.7%, cholesterol 2.5%, sodium cholate 1.8%, sucrose 41.9%, and water 21.1%) in a dose of 25.5 ml/kg. A suspension of a test compound in gum arabic was orally administered to the mice twice, i.e. immediately after and […] after the administration of the lipid emulsion. 17 hours after the second administration of test compound, blood was collected from descending abdominal aorta under ether anesthesia. Total cholesterol in serum was measured by COD-p-chlorophenol colorimetry. As a reference compound, there was used Nicomol (chemical name: 2,2,6,6-tetrakis(nicotinoyloxymethyl)cyclohexanol) which is commercially available anticholesteremic agent.
Serum cholesterol values at 17 hours after the second administration of test compound were compared with the serum cholesterol values in normal mice and hypercholesterolemic mice.

[2] = test system: glutamic pyruvic transaminase (GPT) in serum, CCl4-administered mice; experiment: Activity against carbon tetrachloride-induced hepatic disease (serum GPT); type: in vivo, dd male mice
Description: (§1) To dd male mice weighing 18-20 g (one group: 10 mice) was orally administered a suspension of a test compound in gum arabic twice or three times per day. On the third day, 1% carbon tetrachloride (v/v % in olive oil) was subcutaneously injected at the back of the mice in a dose of 2 ml/kg one hour after the last administration of test compound. 19 hours after the injection of CCl4, a suspendion of a test compound in gum arabic was orally administerd. After one hour, the mice were subjected to laparotomy under ether anesthesia and blood was collected from the descending abdominal aorta. The blood thus collected was centrifuged at 3,000 r.p.m. for 15 minutes. The enzymatic activities of glutamic oxaloacetic transaminase (GOT) and glutamic pyruvic transaminase (GPT) in serum were measured with S.TA-Test Wako (manufactured by Wako Pure Chemical Industries, Ltd., Japan).
(§2) The activities of GOT and GPT in serum of the mice which were administered test compounds were compared with the GOT and GPT activities in serum of normal mice and 1% CCl4 (v/v % in olive oil)-administered mice.

[3] = test system: ornithine carbamyl transferase (OCT) in serum, ethanol-administered mice; experiment: Activity against alcoholic hepatic disease (serum OCT activity); type: in vivo, dd-Male mice
Description: dd-Male mice (4 weeks age, weighing about 15 g, one group: 10 mice) were fed with a hyperlipid feed [composition: cholesterol 1.0%, sodium cholate 0.5%, butter 5.0%, sucrose 30.0%, casein 10.0%, and M powder feed (manufactured by Oriental Yeast Co., Ltd., Japan) 53.5%] for 4 weeks. During the feeding, a suspension of a test compound in gum arabic and a 20% aqueous ethanol (15 ml/kg) were orally administered twice a day (morning and evening). After 4 weeks, mice were subjected to laparotomy under ether anesthesia, and blood was collected from the descending abdominal aorta. The blood thus collected was centrifuged at 3,000 r.p.m. for 15 minutes, and the enzymatic activity of ornithine carbamyl transferase (OCT) was measured with OCT-Test Wako (manufactured by Wako Pure Chemical Industries, Ltd., Japan).
The OCT activity in serum of mice which were administered test compounds was compared with the OCT activity in serum of normal mice and in control mice which were administered only 20% aqueous ethanol.

[4] = test system: glutamic oxaloacetic transaminase (GOT) in serum, CCl4-administered mice; experiment: Activity against carbon tetrachloride-induced hepatic disease (serum GOT); type: in vivo, dd male mice
Description: as §1, §2

[5] = test system: blood cholesterol concentration; conditions: known agents, background; cited from earlier work
Acute toxicity (LD50) = conditions: mouse, in vivo; mice, oral administration
Description: The compounds of this invention show a low toxicity. For instance, Compound 1 and Compound 2 have LD50 of more than 5,000 mg/kg in mice (by oral administration).

Cc1c(C)c2c(c(C)c1OC(=O)c1cccnc1)CCC(C)(COC(=O)c1cccnc1)O2 (centres unmarked) [Compound 5, 3,4-dihydro-2-nicotinoyloxymethyl-2,5,7,8-tetramethyl-2H-benzopyran-6-yl nicotinate]
Serum cholesterol value ([1]; Table 1, 452 mg/kg, normal 98.6 ± 10.8, hypercholesterolemic 172.2 ± 8.6): 127.9 ± 14.2 mg/dL
cholesterol lowering activity compared with Nicomol ([1]; relative to Nicomol): about two times higher cholesterol lowering activity than Nicomol
inhibition of increase of GPT activity induced by CCl4 ([2]; in words): excellent inhibition of increase of GOT and GPT activities induced by CCl4 in a similar degree to that of Compound 2
inhibition of increase of OCT activity induced by alcohol ([3]; in words): excellent inhibition of increase of OCT activity induced by alcohol in a similar degree to that of Compound 2
inhibition of increase of GOT activity induced by CCl4 ([4]; in words): excellent inhibition of increase of GOT and GPT activities induced by CCl4 in a similar degree to that of Compound 2

Cc1c(C)c2c(c(C)c1O)CCC(C)(COC(=O)c1cccnc1)O2 (centres unmarked) [Compound 4]
Serum cholesterol value ([1]; Table 1, 341 mg/kg, normal 98.6 ± 10.8, hypercholesterolemic 172.2 ± 8.6): 159.4 ± 13.4 mg/dL

O=C(O)c1cccnc1 [nicotinic acid]
blood cholesterol concentration lowering [5]: temporarily lowered, but the lowered concentration is not sustained

Cc1c(C)c2c(c(C)c1OC(=O)c1cccnc1)CCC(C)(CCOC(=O)c1cccnc1)O2 (centres unmarked) [Compound 2, 3,4-dihydro-2-nicotinoyloxyethyl-2,5,7,8-tetramethyl-2H-benzopyran-6-yl nicotinate]
Serum cholesterol value ([1]; Table 2, 300 mg/kg, normal 101.0 ± 5.8, hypercholesterolemic 194.3 ± 9.5): 139.6 ± 9.3 mg/dL
GPT activity (average) ([2]; Table 6, 300 mg/kg, p.o., normal 74.0 ± 16.3, CCl4-administered 1251.4 ± 285.4): 765.7 ± 84.4
OCT activity unit (mean ± S.E.) ([3]; Table 5, 300 mg/kg, p.o., twice a day, 4 weeks, normal 5.1 ± 3.2, ethanol-administered 122.5 ± 17.0): 79.6 ± 12.2 unit
GOT activity (average) ([4]; Table 6, 300 mg/kg, p.o., normal 87.9 ± 5.3, CCl4-administered 914.3 ± 195.1): 582.9 ± 59.8
LD50 (Acute toxicity (LD50)): > 5000 mg/kg

Cc1c(C)c2c(c(C)c1OC(=O)c1cccnc1)CCC(C)(CC(COC(=O)c1cccnc1)OC(=O)c1cccnc1)O2 (centres unmarked) [Compound 7]
Serum cholesterol value ([1]; Table 3, 571 mg/kg, normal 109.1 ± 9.3, hypercholesterolemic 164.0 ± 12.8): 143.6 ± 10.8 mg/dL

Cc1c(C)c2c(c(C)c1OC(=O)c1cccnc1)CCC(C)(CCCOC(=O)c1cccnc1)O2 (centres unmarked) [Compound 6, 3,4-dihydro-2-nicotinoyloxypropyl-2,5,7,8-tetramethyl-2H-benzopyran-6-yl nicotinate]
Serum cholesterol value ([1]; Table 1, 474 mg/kg, normal 98.6 ± 10.8, hypercholesterolemic 172.2 ± 8.6): 123.8 ± 13.8 mg/dL

O=C(OCC(COC(=O)c1cccnc1)(COC(=O)c1cccnc1)COC(=O)c1cccnc1)c1cccnc1 [pentaerythritol tetranicotinate]
blood cholesterol concentration lowering [5]: not necessarily sufficient for lowering blood cholesterol

Cc1c(C)c2c(c(C)c1O)CCC(C)(CCOC(=O)c1cccnc1)O2 (centres unmarked) [Compound 1, 3,4-dihydro-2-nicotinoyloxyethyl-2,5,7,8-tetramethyl-2H-benzopyran-6-ol]
Serum cholesterol value ([1]; Table 1, 355 mg/kg, normal 98.6 ± 10.8, hypercholesterolemic 172.2 ± 8.6): 130.7 ± 11.3 mg/dL
LD50 (Acute toxicity (LD50)): > 5000 mg/kg

Cc1c(C)c2c(c(C)c1OC(=O)c1cccnc1)CCC(C)(CCO)O2 (centres unmarked) [Compound 3]
Serum cholesterol value ([1]; Table 4, 355 mg/kg, normal 111.3 ± 8.6, hypercholesterolemic 165.0 ± 13.4): 144.0 ± 10.5 mg/dL

O=C(OCC1(COC(=O)c2cccnc2)CCCC(COC(=O)c2cccnc2)(COC(=O)c2cccnc2)C1O)c1cccnc1 [Nicomol, 2,2,6,6-tetrakis(nicotinoyloxymethyl)cyclohexanol, reference compound]
Serum cholesterol value ([1]; Table 1, 640 mg/kg, normal 98.6 ± 10.8, hypercholesterolemic 172.2 ± 8.6): 146.1 ± 14.7 mg/dL
Serum cholesterol value ([1]; Table 2, 640 mg/kg, normal 101.0 ± 5.8, hypercholesterolemic 194.3 ± 9.5): 139.4 ± 4.4 mg/dL
Serum cholesterol value ([1]; Table 3, 640 mg/kg, normal 109.1 ± 9.3, hypercholesterolemic 164.0 ± 12.8): 138.3 ± 12.5 mg/dL
Serum cholesterol value ([1]; Table 4, 640 mg/kg, normal 111.3 ± 8.6, hypercholesterolemic 165.0 ± 13.4): 142.7 ± 11.5 mg/dL
blood cholesterol concentration lowering [5]: not necessarily sufficient for lowering blood cholesterol
